# Patent publication US20230204599A1, “TRIAGING METHOD USING CELL FREE NUCLEOSOME LEVELS” (Belgian Volition SRL (BE/BE), priority 2020, published 2023)
# Assays:
# [1] = system: white cells in fresh healthy whole blood; assay: NETs formation induced in fresh healthy whole blood, H3.1-nucleosome ELISA and Bioanalyzer electrophoresis of plasma; format: cell-based, human; settings: 2 healthy volunteers
# Description: We collected whole blood samples from two healthy volunteers, in whom low levels of circulating NET material would be expected, in EDTA plasma blood collection tubes and in heparin plasma blood collection tubes. The two EDTA plasma blood collection tubes were centrifuged immediately to separate the cellular and plasma fractions to minimise contamination by large chromatin (including NET material) and the plasma was transferred to cryotubes and frozen. The two heparin plasma blood collection tubes were incubated at room temperature for 1 hour with gentle rotation of the tubes. The tubes were then centrifuged and the plasma was transferred to cryotubes and frozen.
# The samples were assayed for nucleosomes containing histone isoform H3.1 (H3.1-nucleosomes) using an ELISA procedure in duplicate. In brief, 20 μl of sample were added to a microtiter well containing magnetic particles precoated with an anti-histone H3.1 antibody. The sample was incubated and the magnetic particles were isolated and washed. An anti-nucleosome antibody directed to bind to a conformational nucleosome epitope conjugated to horse radish peroxidase was added to the magnetic particles. The particles were incubated and then isolated and washed. The bound anti-nucleosome antibody was measured using a coloured substrate reaction. […]
# sepsis induced in mice = settings: cited from earlier work
# [2] = cited from earlier work
# [3] = single 25 mg/m^2 bolus intravenous dose
compound,measurement,setting,value
heparin,NET material level in plasma (H3.1-nucleosome ELISA),[1]; blood collection tubes incubated 1 hour at room temperature,high
same,"level of NET material in plasma (DNA fragment size, Bioanalyzer)",[1]; retention time approximately 110 seconds,high
COc1cccc2c1C(=O)c1c(O)c3c(c(O)c1C2=O)C[C@@](O)(C(=O)CO)C[C@@H]3O[C@H]1C[C@H](N)[C@@H](O)[C@H](C)O1 [epirubicin],survival,"sepsis induced in mice; lethal sepsis by cecal ligation and puncture, death in 100% of mice within 72 hours without treatment",75%
same,inflammation measured by circulating inflammatory biomarkers,sepsis induced in mice; septic mice,reduction in inflammation
DNase,half-life,"[2]; in vivo, iv",3 to 4 h
COc1cccc2c1C(=O)c1c(O)c3c(c(O)c1C2=O)C[C@@](O)(C(=O)CO)C[C@@H]3O[C@H]1C[C@H](N)[C@H](O)[C@H](C)O1 [doxorubicin],serum concentration,[2]; [3],10000 ng/mL
same,time serum level remains above 3 μg/ml,[2]; [3],around 4 days
